Where two headings read alike, the source gives them in different places.
Legend:
A-427 = assay: MTT cell viability assay; type: cell-based; conditions: Homo sapiens, 48 h
Protocol: (§1) Distinct MTT cell viability and crystal violet cell proliferation assays were performed to assess the cytotoxicity of the compounds 1–6 on 14 human cancer cell lines. In the viability assay, cells with intact mitochondria and thus active dehydrogenases are competent to convert MTT to the corresponding insoluble formazan. The formazan can be photometrically detected after solubilization and allows for indirect conclusions about the viability of the cells as an IC50 value. In the crystal violet assay, cells are stained by the binding of the dye to the chromatin, thus allowing for a quantification of biomass that remains adherent after a treatment in comparison with a control after a specific time. Potency is defined as the growth inhibitory concentration 50% (GI50).
(§2) In addition to performing the cell viability assay under normoxia (19% atmospheric oxygen), incubations were also conducted under hypoxic conditions, i.e., atmospheric oxygen levels of 1% during the treatment for 48 h. Hypoxia is a favorable condition of the tumor microenvironment that is connected with poor outcome. Therefore, the low oxygen condition mimics better the tumor environment. The biological effect of the pentathiepins under this condition provides insight into their dependency for oxygen, which has been postulated a key component in the proposed mechanism of action (Figure 3). Consistent with the proposed mechanism of action for five of the compounds, potency decreased under hypoxic conditions; in fact for 6, the half-maximal inhibitory concentration exceeded the highest tested concentration of 10 µM in four cell lines (Figure 6, Table S3). […] In contrast to the other compounds, in some cell lines, the cytotoxic effects of 1 were more pronounced under oxygen-reduced incubation conditions (Figure 6), indicating a tangential role of oxygen availability for this pentathiepin. Especially for the breast cancer cell line MCF-7, the cytotoxicity increased substantially, indicated by a decrease of the IC50 from >10.0 µM to about 1.0 µM.
(§3) The effect of the pentathiepins on the viability of the cell lines was assessed via an MTT assay, performed as previously described. Healthy and viable cells convert the yellow soluble 3-(4,5-dimethylthiazol-2-yl)-2,5-diphenyltetrazolium bromide to the insoluble purple corresponding formazan, which can be spectrophotometrically measured. For this assay, 5000 cells (1 250 for LCLC-103H) in 0.1 mL of medium were seeded per well of a 96-well plate and incubated at standard conditions for 24 h prior to treatment. A serial dilution of the test compounds was prepared in medium, covering final concentrations from 10.0 to 0.04 µM, and 0.1 mL of the working solution was added to each well in triplicate. After 48 h, 20 µL of a 2.5 mg/mL MTT in PBS solution was pipetted into each well and further incubated for 4 h at standard conditions. Thereafter, medium was replaced with 50 µL DMSO, and the plates were put on a shaker for 5 min and subsequently read at λ = 570 nm, with a SpectraMax 384plus (Molecular Devices, Sunnyvale, CA, USA). The cell viabilities of the treatment conditions were calculated in relation to a solvent control sample. The absolute IC50 was calculated via nonlinear regression followed by interpolation of the dose–response graphs in Prism 7 (GraphPad, San Diego, CA, USA). The IC90 was derived from the IC50 by using the slope factor of the dose–response graph with the tool QuickCalcs from GraphPad (GraphPad Software, San Diego, CA, USA).

A2780cis = assay: MTT cell viability assay; type: cell-based; conditions: Homo sapiens, 48 h
Protocol: as §1, §2, §3

A2780 = assay: MTT cell viability assay; type: cell-based; conditions: Homo sapiens; for IC50: 48 h; for IC90: calculated via GraphPad QuickCalcs from MTT IC50 and slope factor
Protocol: as §1, §2, §3

DanG = assay: MTT cell viability assay; type: cell-based; conditions: Homo sapiens; for IC50: 48 h; for IC90: calculated via GraphPad QuickCalcs from MTT IC50 and slope factor
Protocol: as §1, §2, §3

HAP-1.KO.GPx1 = assay: MTT cell viability assay; type: cell-based; conditions: Homo sapiens; for IC50: 48 h; for IC90: calculated via GraphPad QuickCalcs from MTT IC50 and slope factor
Protocol: as §1, §2, §3

HAP-1 = assay: MTT cell viability assay; type: cell-based; conditions: Homo sapiens; for IC50: HAP1, 48 h; for IC90: HAP1, calculated via GraphPad QuickCalcs from MTT IC50 and slope factor
Protocol: as §1, §2, §3

Kyse-70 = assay: MTT cell viability assay; type: cell-based; conditions: Homo sapiens, 48 h
Protocol: as §1, §2, §3

LCLC-103H = assay: MTT cell viability assay; type: cell-based; conditions: Homo sapiens, 48 h
Protocol: as §1, §2, §3

PATU-8902 = assay: MTT cell viability assay; type: cell-based; conditions: Homo sapiens; for IC50: 48 h; for IC90: calculated via GraphPad QuickCalcs from MTT IC50 and slope factor
Protocol: as §1, §2, §3

RT-112 = assay: MTT cell viability assay; type: cell-based; conditions: Homo sapiens, 48 h
Protocol: as §1, §2, §3

RT-4 = assay: MTT cell viability assay; type: cell-based; conditions: Homo sapiens, 48 h
Protocol: as §1, §2, §3

Siso = assay: MTT cell viability assay; type: cell-based; conditions: Homo sapiens; for IC50: 48 h; for IC90: calculated via GraphPad QuickCalcs from MTT IC50 and slope factor
Protocol: as §1, §2, §3

YAPC = assay: MTT cell viability assay; type: cell-based; conditions: Homo sapiens; for IC50: 48 h; for IC90: calculated via GraphPad QuickCalcs from MTT IC50 and slope factor
Protocol: as §1, §2, §3

[1] = tested on: HAP-1, HAP-1.KO.GPx1, A2780, and Siso; assay: apoptosis (summary); type: cell-based, human; design: key: no impact (0); weak impact (+); strong impact (++); conditions: summary grade
Protocol: As reported in our earlier publication, a representative pentathiepin was capable of inducing apoptosis in cancer cell lines. Here, we tested compounds 1–6 for their ability to trigger this particular modality of cell death in a subset of four cell lines: HAP-1, HAP-1.KO.GPx1, A2780, and Siso. A flow cytometric assay was performed, allowing us to discriminate between viable, early, and late apoptotic cells (representative dot plots can be found in Figure S47). FITC-labeled annexin V was used to assess the externalization of phosphatidyl serine as a hallmark of early apoptosis induction. The addition of propidium iodide (PI) enabled the detection of late apoptotic cells as it only permeates porous cell membranes and exerts fluorescence once bound to double-stranded DNA.
The annexin V-FITC/PI assay, which discriminates between viable, early, and late apoptotic cells within a sample population, was performed according to the manufacturer’s instructions (Miltenyi Biotec, Teterow, Germany). Briefly, 125,000 cells were seeded in 2 mL per well of a 6-well plate, allowed to adhere overnight, and subsequently treated with the respective pentathiepin (IC90, see Table S4) diluted in 3 mL of medium. After incubation periods of 6, 24, or 48 h, the cells were harvested, washed with the provided binding buffer, and stained with the annexin V-FITC reagent for 20 min at room temperature (RT) in the dark. After another washing step, the pellet was resuspended, and PI was added immediately before flow cytometric measurement at λEx/Em = 488/525 ± 50 nm for FITC and λEx/Em = 488/655–730 nm for PI with the MACSquant Analyzer 10 (Miltenyi Biotec, Teterow, Germany).

[2] = hypoxic (1% O2), read-out: IC50 MTT-H mean
[3] = normoxic (19% O2), read-out: IC50 MTT-N mean

With `CCOc1c2c(c3cnc4[nH]c(-c5ccc(OC)cc5)cc4n13)SSSSS2` [Compound 1, 11-Ethoxy-2-(4-methoxyphenyl)-3H-[1,2,3,4,5]pentathiepino[6′,7′:3,4]pyrrolo[1,2-a]pyrrolo[2,3-e]pyrazine] the IC50 (A-427; [2]) was 285 nM, the IC50 (A-427; [3]) was 349 nM and the IC50 (A2780cis; [2]) was 411 nM. For the same molecule, the IC50 (A2780cis; [3]) was 410 nM, the IC50 (A2780; [2]) was 443 nM and the IC50 (A2780; [3]) was 692 nM. It also gave an IC90 (A2780) of 1870 nM, an IC50 (DanG; [2]) of 478 nM and an IC50 (DanG; [3]) of 1110 nM. It also gave an IC90 (DanG) of 1710 nM, an IC50 (HAP-1.KO.GPx1; [2]) of 428 nM and an IC50 (HAP-1.KO.GPx1; [3]) of 358 nM. It also gave an IC90 (HAP-1.KO.GPx1) of 550 nM, an IC50 (HAP-1; [2]) of 384 nM and an IC50 (HAP-1; [3]) of 398 nM. The IC90 (HAP-1) was 710 nM, the IC50 (Kyse-70; [2]) was 532 nM and the IC50 (Kyse-70; [3]) was 477 nM. For the same molecule, the IC50 (LCLC-103H; [2]) was 552 nM, the IC50 (LCLC-103H; [3]) was 1420 nM and the IC50 (PATU-8902; [2]) was 543 nM. The IC50 (PATU-8902; [3]) was 579 nM, the IC90 (PATU-8902) was 1220 nM and the IC50 (RT-112; [2]) was 306 nM. For the same molecule, the IC50 (RT-112; [3]) was 399 nM, the IC50 (RT-4; [2]) was 522 nM and the IC50 (RT-4; [3]) was 1930 nM. It also gave an IC50 (Siso; [2]) of 602 nM, an IC50 (Siso; [3]) of 414 nM and an IC90 (Siso) of 770 nM. The IC50 (YAPC; [2]) was 360 nM, the IC50 (YAPC; [3]) was 780 nM and the IC90 (YAPC) was 2470 nM. The Apoptosis [1] was “+”.
`CCOc1c2c(c3ccc(C(=O)N4CCCCC4)cn13)SSSSS2` [Compound 2, (6-Ethoxy-[1,2,3,4,5]pentathiepino[6,7-a]indolizin-9-yl)(piperidinyl)methanone] showed an IC50 (A-427; [2]) of 1080 nM, an IC50 (A-427; [3]) of 1460 nM and an IC50 (A2780cis; [2]) of 637 nM. The IC50 (A2780cis; [3]) was 652 nM, the IC50 (A2780; [2]) was 804 nM and the IC50 (A2780; [3]) was 430 nM. For the same molecule, the IC90 (A2780) was 1000 nM, the IC50 (DanG; [2]) was 4350 nM and the IC50 (DanG; [3]) was 1990 nM. The IC90 (DanG) was 3060 nM, the IC50 (HAP-1.KO.GPx1; [2]) was 1190 nM and the IC50 (HAP-1.KO.GPx1; [3]) was 644 nM. The IC90 (HAP-1.KO.GPx1) was 1200 nM, the IC50 (HAP-1; [2]) was 847 nM and the IC50 (HAP-1; [3]) was 600 nM. For the same molecule, the IC90 (HAP-1) was 1180 nM, the IC50 (Kyse-70; [2]) was 2100 nM and the IC50 (Kyse-70; [3]) was 1580 nM. For the same molecule, the IC50 (LCLC-103H; [2]) was 1540 nM, the IC50 (LCLC-103H; [3]) was 1360 nM and the IC50 (PATU-8902; [2]) was 3150 nM. It also gave an IC50 (PATU-8902; [3]) of 1720 nM, an IC90 (PATU-8902) of 6520 nM and an IC50 (RT-112; [2]) of 1720 nM. The IC50 (RT-112; [3]) was 1340 nM, the IC50 (RT-4; [2]) was 5900 nM and the IC50 (RT-4; [3]) was 1600 nM. It also gave an IC50 (Siso; [2]) of 2960 nM, an IC50 (Siso; [3]) of 1380 nM and an IC90 (Siso) of 2700 nM. The IC50 (YAPC; [2]) was 2230 nM, the IC50 (YAPC; [3]) was 1550 nM and the IC90 (YAPC) was 4260 nM. For the same molecule, the Apoptosis [1] was “+”.
In the case of `CCOc1c2c(c3ccc(C(=O)N4CCOCC4)cn13)SSSSS2` [Compound 3, (6-Ethoxy-[1,2,3,4,5]pentathiepino[6,7-a]indolizin-9-yl)(morpholino)methanone], the IC50 (A-427; [2]) is reported as 959 nM, the IC50 (A-427; [3]) is reported as 785 nM and the IC50 (A2780cis; [2]) is reported as 316 nM. It also gave an IC50 (A2780cis; [3]) of 206 nM, an IC50 (A2780; [2]) of 616 nM and an IC50 (A2780; [3]) of 135 nM. For the same molecule, the IC90 (A2780) was 360 nM, the IC50 (DanG; [2]) was 2660 nM and the IC50 (DanG; [3]) was 1450 nM. For the same molecule, the IC90 (DanG) was 2540 nM, the IC50 (HAP-1.KO.GPx1; [2]) was 911 nM and the IC50 (HAP-1.KO.GPx1; [3]) was 368 nM. The IC90 (HAP-1.KO.GPx1) was 800 nM, the IC50 (HAP-1; [2]) was 657 nM and the IC50 (HAP-1; [3]) was 263 nM. It also gave an IC90 (HAP-1) of 620 nM, an IC50 (Kyse-70; [2]) of 2290 nM and an IC50 (Kyse-70; [3]) of 824 nM. For the same molecule, the IC50 (LCLC-103H; [2]) was 820 nM, the IC50 (LCLC-103H; [3]) was 571 nM and the IC50 (PATU-8902; [2]) was 2340 nM. For the same molecule, the IC50 (PATU-8902; [3]) was 1050 nM, the IC90 (PATU-8902) was 2480 nM and the IC50 (RT-112; [2]) was 1470 nM. For the same molecule, the IC50 (RT-112; [3]) was 1050 nM, the IC50 (RT-4; [2]) was 2310 nM and the IC50 (RT-4; [3]) was 878 nM. For the same molecule, the IC50 (Siso; [2]) was 2730 nM, the IC50 (Siso; [3]) was 573 nM and the IC90 (Siso) was 1230 nM. It also gave an IC50 (YAPC; [2]) of 2370 nM, an IC50 (YAPC; [3]) of 1220 nM and an IC90 (YAPC) of 2240 nM. The Apoptosis [1] was “++”.
